Source: ChEMBL document CHEMBL1201862, “PubChem BioAssay data set” (2004)
Active and inactive are the calls of the source.

Key:
[1] = THP-1 cell cytotoxicity, dose response, cytotoxicity control, set 3 (AID 504852); assay type: functional; settings: Mycobacterium tuberculosis
[2] = biological target: T1, High affinity choline transporter 1 (Homo sapiens, UniProt Q9GZV3); assay: CHT activators, dose response, cell-based, 10-point CRC, membrane potential dye (AID 602376); assay type: functional
T1 sequence (Q9GZV3 whole entry): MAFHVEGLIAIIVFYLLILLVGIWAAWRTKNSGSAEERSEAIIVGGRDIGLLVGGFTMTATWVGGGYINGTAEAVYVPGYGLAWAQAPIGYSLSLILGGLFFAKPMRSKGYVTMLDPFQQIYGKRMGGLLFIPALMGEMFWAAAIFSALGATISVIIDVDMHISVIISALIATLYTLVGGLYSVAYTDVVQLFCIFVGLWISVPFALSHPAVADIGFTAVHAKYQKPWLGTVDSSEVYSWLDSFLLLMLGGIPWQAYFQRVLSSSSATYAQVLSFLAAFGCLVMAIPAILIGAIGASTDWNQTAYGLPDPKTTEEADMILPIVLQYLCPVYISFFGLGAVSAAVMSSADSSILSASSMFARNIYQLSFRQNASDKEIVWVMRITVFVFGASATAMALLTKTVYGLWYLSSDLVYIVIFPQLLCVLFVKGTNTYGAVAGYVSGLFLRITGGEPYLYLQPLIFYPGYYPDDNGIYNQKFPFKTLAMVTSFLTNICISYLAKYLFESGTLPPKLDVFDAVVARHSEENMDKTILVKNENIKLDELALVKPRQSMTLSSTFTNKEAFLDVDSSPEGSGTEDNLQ

[3] = A cell-based HTS for delayed death inhibitors of the malarial parasite plastid Measured in Microorganism System Using Plate Reader - 2126-02_Inhibitor_Dose_DryPowder_Activity.; assay type: functional, organism-based
[4] = A cell-based HTS for delayed death inhibitors of the malarial parasite plastid Measured in Microorganism System Using Plate Reader - 2126-01_Inhibitor_Dose_DryPowder_Activity.; assay type: functional, organism-based
[5] = biological target: T2, Orexin/Hypocretin receptor type 1 (Homo sapiens, UniProt O43613); assay: Homogeneous Time Resolved Fluorescence (HTRF)-based cell-based high throughput dose response assay for antagonists of the orexin 1 receptor (OX1R; HCRTR1). [Related pubchem assays (depositor defined):AID434989, AID435008, AID463079, AID485270, AID492963, AID492964, AID492965, AID493232, AID504717, AID504718]; assay type: functional
T2 sequence (O43613 whole entry): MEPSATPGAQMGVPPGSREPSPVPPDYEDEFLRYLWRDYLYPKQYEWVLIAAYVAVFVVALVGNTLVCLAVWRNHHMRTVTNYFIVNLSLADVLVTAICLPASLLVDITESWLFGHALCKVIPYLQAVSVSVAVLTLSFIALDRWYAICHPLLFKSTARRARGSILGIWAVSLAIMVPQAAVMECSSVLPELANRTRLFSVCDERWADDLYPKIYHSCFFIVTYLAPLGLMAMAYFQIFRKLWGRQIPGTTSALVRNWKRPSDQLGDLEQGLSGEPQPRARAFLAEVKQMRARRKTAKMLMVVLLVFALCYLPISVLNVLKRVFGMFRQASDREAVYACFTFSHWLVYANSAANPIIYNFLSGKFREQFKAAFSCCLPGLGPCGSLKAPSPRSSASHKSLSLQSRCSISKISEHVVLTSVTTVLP

CHO-K1 = assay: (§1) Counterscreen for antagonists of the orexin 1 receptor (OX1R; HCRTR1): Homogeneous time resolved fluorescence (HTRF)-based cell-based dose response assay to identify antagonists of the parental CHO-K1 cell line. [Related pubchem assays (depositor defined):AID434989, AID435008, AID463079, AID485270, AID492963, AID492964, AID492965, AID493232, AID504699, AID504701]; assay type: functional; settings: Cricetulus griseus
[6] = biological target: T3, Sentrin-specific protease 6 (Homo sapiens, UniProt Q9GZR1); assay type: functional;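 further: Luminescence-based dose-response confirmatory assay of SENP6 inhibition, following up an ultra-high-throughput screen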
T3 sequence (Q9GZR1 whole entry): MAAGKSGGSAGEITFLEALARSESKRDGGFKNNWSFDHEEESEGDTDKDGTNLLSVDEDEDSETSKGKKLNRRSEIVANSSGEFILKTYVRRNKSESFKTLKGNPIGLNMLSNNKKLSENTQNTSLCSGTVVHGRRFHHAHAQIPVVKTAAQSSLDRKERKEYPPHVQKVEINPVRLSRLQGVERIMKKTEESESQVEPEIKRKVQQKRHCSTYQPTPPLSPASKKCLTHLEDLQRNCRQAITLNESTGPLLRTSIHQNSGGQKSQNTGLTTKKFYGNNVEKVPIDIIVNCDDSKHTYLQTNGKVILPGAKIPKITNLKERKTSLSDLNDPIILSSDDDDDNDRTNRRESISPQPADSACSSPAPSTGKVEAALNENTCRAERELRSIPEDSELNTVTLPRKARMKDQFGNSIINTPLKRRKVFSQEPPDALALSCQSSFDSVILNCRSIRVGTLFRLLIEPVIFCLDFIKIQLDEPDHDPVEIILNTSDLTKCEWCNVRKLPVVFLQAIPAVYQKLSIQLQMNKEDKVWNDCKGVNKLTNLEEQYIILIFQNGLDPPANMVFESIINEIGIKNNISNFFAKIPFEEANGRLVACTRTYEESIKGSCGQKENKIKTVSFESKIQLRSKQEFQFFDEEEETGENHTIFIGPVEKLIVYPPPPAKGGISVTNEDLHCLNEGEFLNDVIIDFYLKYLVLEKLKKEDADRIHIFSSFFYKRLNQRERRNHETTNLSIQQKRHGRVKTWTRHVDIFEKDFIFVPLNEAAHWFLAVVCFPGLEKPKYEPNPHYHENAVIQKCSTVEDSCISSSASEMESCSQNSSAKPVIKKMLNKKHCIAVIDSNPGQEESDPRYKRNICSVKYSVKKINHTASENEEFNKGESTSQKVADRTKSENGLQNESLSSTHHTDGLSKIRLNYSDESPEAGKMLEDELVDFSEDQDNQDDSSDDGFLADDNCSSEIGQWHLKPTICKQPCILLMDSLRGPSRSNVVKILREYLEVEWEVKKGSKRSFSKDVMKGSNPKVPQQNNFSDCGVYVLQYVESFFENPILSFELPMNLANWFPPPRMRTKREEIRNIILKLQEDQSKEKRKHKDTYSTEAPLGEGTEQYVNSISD

[7] = biological target: T4, Sentrin-specific protease 8 (Homo sapiens, UniProt Q96LD8); assay type: functional;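 further: luminescence read-out of SENP8 inhibition, dose-response confirmation following an ultra-high-throughput screen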
T4 sequence (Q96LD8 whole entry): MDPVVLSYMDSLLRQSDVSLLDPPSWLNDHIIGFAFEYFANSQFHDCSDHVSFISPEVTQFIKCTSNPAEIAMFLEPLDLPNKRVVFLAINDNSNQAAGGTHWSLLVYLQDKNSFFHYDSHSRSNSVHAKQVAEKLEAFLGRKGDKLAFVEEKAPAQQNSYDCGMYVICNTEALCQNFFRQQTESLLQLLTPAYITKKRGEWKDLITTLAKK

[8] = as §1, with “Fluorescence-based” for “Homogeneous time resolved fluorescence (HTRF)-based”, “cell-based high throughput” for “cell-based”, “CHO” for “CHO-K1”; assay type: functional
Caspase-3 = biological target: T5, Caspase-3 (Homo sapiens, UniProt P42574); assay type: functional;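 further: Dose-response selectivity test against caspase-3 for candidate inhibitors of sentrin-specific proteases (SENPs)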
T5 sequence (P42574 whole entry): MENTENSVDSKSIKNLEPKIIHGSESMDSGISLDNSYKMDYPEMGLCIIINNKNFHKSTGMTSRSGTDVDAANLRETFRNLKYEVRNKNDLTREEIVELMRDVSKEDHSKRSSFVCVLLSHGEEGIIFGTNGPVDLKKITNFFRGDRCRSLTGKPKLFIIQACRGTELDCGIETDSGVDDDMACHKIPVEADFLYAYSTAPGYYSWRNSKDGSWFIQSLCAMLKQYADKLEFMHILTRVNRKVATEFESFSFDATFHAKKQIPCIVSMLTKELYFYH

[9] = biological target: T6, Sentrin-specific protease 7 (Homo sapiens, UniProt Q9BQF6); assay type: functional;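 further: Luminescence-based dose-response confirmation of ultra-high-throughput screening hits, measuring inhibition of SENP7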
T6 sequence (Q9BQF6 whole entry): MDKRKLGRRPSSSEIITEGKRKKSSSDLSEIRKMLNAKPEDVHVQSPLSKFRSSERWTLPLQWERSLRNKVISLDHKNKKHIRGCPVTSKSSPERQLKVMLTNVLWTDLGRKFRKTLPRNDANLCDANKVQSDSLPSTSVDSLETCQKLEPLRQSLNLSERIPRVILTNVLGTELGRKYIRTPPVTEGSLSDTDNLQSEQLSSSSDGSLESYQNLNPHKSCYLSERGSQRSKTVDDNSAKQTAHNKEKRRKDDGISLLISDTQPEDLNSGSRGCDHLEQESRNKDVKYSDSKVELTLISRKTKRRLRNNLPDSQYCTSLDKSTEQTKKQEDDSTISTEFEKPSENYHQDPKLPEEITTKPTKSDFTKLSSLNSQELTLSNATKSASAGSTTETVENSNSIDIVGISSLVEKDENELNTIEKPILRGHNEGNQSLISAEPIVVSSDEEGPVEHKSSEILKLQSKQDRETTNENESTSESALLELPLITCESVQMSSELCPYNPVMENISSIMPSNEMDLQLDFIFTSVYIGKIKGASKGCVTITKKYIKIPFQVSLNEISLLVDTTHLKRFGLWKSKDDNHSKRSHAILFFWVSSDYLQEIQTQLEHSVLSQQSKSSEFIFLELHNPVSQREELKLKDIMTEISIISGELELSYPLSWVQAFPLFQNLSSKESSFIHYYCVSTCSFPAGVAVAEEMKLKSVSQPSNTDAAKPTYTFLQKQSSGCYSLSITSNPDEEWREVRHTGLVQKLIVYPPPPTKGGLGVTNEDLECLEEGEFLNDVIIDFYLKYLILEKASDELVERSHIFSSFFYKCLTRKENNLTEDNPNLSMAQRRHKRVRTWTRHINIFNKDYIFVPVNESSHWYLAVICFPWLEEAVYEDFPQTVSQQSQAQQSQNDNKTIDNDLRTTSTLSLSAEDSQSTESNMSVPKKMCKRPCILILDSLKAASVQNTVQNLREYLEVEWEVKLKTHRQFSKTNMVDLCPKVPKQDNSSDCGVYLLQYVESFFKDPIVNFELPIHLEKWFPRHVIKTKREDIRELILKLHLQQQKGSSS

[10] = biological target: T2, Orexin/Hypocretin receptor type 1; assay: Fluorescence-based cell-based high throughput dose response assay for antagonists of the orexin 1 receptor (OX1R; HCRTR1). [Related pubchem assays (depositor defined):AID434989, AID435008, AID463079, AID485270, AID492963, AID492964, AID492965, AID493232, AID504717, AID504718]; assay type: functional
Orexin receptor type 2 [11] = biological target: T7, Orexin receptor type 2 (Homo sapiens, UniProt O43614); assay: Counterscreen assay for antagonists of the orexin 1 receptor (OX1R; HCRTR1): Homogeneous Time Resolved Fluorescence (HTRF)-based cell-based dose response assay for antagonists of the orexin 2 receptor (OX2R; HCRTR2), run by assay provider.; assay type: functional
T7 sequence (O43614 whole entry): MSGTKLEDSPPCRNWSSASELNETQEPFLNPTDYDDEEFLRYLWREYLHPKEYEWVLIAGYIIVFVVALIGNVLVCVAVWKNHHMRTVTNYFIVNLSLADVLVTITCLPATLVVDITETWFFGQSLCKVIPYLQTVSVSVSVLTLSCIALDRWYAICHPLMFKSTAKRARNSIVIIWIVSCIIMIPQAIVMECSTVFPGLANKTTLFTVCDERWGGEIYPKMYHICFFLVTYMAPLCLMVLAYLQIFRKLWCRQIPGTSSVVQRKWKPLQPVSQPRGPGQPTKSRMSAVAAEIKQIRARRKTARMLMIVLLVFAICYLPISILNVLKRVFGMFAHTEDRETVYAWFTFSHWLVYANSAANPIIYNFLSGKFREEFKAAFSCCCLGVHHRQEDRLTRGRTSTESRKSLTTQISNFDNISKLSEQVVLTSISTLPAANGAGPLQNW

Orexin receptor type 2 [12] = biological target: T7, Orexin receptor type 2; assay: Counterscreen assay for antagonists of the orexin 1 receptor (OX1R; HCRTR1): Fluorescence-based cell-based dose response assay for antagonists of the orexin 2 receptor (OX2R; HCRTR2), run by assay provider.; assay type: functional

CCC(Sc1nc2ccccc2c(=O)[nH]1)C(=O)NC1CCCCC1 (centres undefined)
CC50 [1]: > 100 µM (active)

CN(CC(=O)Nc1ccc(F)c(F)c1F)C(=O)c1cc(-c2ccncc2)nc2ccccc12
EC50 [2]: 14.6 µM (active)

CC(C)NC(=O)Nc1ccc2c(c1)C(=O)N([C@@H](C)CO)C[C@@H](C)[C@H](CN(C)S(=O)(=O)c1ccc(F)cc1)OCCCC[C@H](C)O2
AC50 [3]: 0.765 µM (active)
AC50 [4]: 0.71 µM (active)

COc1ccc(/C=C/c2n[nH]c(-c3ccccc3O)n2)cc1OC
IC50 [5]: 2.51 µM (active)
IC50 (CHO-K1): > 66.2 µM (inactive)
IC50 [6]: 13.6 µM (active)
IC50 [7]: 12.7 µM (active)
IC50 [8]: > 49.8 µM (inactive)
IC50 (Caspase-3): 58.8 µM (active)
IC50 [9]: 4.7 µM (active)
IC50 [10]: 3.21 µM (active)
IC50 (Orexin receptor type 2 [11]): > 50 µM (inactive)
IC50 (Orexin receptor type 2 [12]): > 88.8 µM (inactive)
